A melting point compilation (Tetko et al.; mined from patent text by program, amines drawn as free bases though some values may be those of a salt)

Row | melting point | Compound
1 | 169 to 173 °C | CC(=O)N(C(=O)C(C)(C)C)C1CC(C)(C)N(OC(=O)C(C)(C)C)C(C)(C)C1
2 | 175 to 176 °C | CCC1(C(=O)O)c2ccccc2Oc2ccccc21
3 | 156 to 158 °C | COc1c(F)cc(Cn2cc[nH]c2=S)cc1F
4 | 133 to 135 °C | CCCc1c(OCC(O)CSc2nc3ccc(C(=O)O)cc3[nH]2)ccc(C(C)=O)c1O (stereo unspecified)
5 | 355 to 358 °C | NC(=O)c1nc(-c2cccc(O)c2)nc2c1[nH]c(=O)n2-c1c(F)cccc1F
6 | 109 to 110 °C | CC(CC(=O)O)c1ccc(-c2ccc(F)cc2F)cc1 (stereo unspecified)
7 | 35 to 36 °C | CC1=C(/C=C/C(C)=C/C=C/C(C)=C/C(=O)OCOC(=O)Oc2ccc([N+](=O)[O-])cc2)C(C)(C)CCC1
8 | 172 to 174 °C | Cc1cc(S(=O)(=O)Nc2cccc(Br)c2)c2c(C)ccc(C(C)C)cc1-2
9 | 157 to 159 °C | Cc1ccc2c(c1)-c1csc(N)c1C2=O
10 | 122 to 123 °C | Cn1ccc(=O)c(-c2cccc(C(F)(F)F)c2)c1
11 | 233 to 236 °C | CC(=O)c1ccc(Nc2cccc(-c3cnc(N)nc3)c2)c([N+](=O)[O-])c1
12 | > 295 °C | CCOC(=O)C(=O)c1c[nH]c2c1ccc1c3ccccc3[nH]c12
13 | 169 to 170 °C | CSC1CCC2C3CCC4=CC(=O)C=CC4(C)C3(F)C(OC(C)=O)CC12C (stereo unspecified)
14 | 83 to 86 °C | CN(Cc1ccco1)C(=O)C=C1OC(C)(C)OC1=O
15 | 111 to 112 °C | O=C1Nc2ccccc2SC1CCCCCl (stereo unspecified)
16 | 99 °C | COC(OC)C(CC#N)C(C)(C)S(=O)(=O)c1ccc(C)cc1 (stereo unspecified)
17 | 153 to 163 °C | Nc1nc(NC2Cc3ccccc3N(S(=O)(=O)c3ccc(Cl)cc3Cl)C2)c2cn[nH]c2n1 (stereo unspecified)
18 | 160 to 161 °C | Cc1ccc(Sc2nc(-c3ccc(Cl)cc3)c(CCC(=O)O)o2)cc1
19 | 213 °C | CCOC(=O)NC(=NC(=O)c1nc(Cl)c(N)nc1N)NC(=O)OCC
20 | 174 to 175 °C | CCOP(=O)(/C=C/c1cn(-c2ccccc2)nc1OCc1ccc(OCc2nc(-c3cccc(CC(=O)O)c3)oc2C)c(OC)c1)OCC
21 | 36 to 37 °C | CCCCCCCC/C=C\CCCCCCCCOc1cccc(N(CC(=O)OC)CC(=O)OC)c1
22 | 181 to 182 °C | CCOC(=O)Nc1ccc2c(c1)CCC2=O
23 | > 190 °C | CC(C)S(=O)(=O)c1cc(OCCc2ccccn2)c2[nH]nc(Nc3ncc(CN4CCOCC4)s3)c2c1
24 | 216 to 218 °C | N#CC(C(=O)NCc1ccccc1)C(=O)c1nn(-c2ccc(F)cc2)c2c1CSc1ccc(Cl)cc1-2 (stereo unspecified)

Second part, the compound before the results:

Row | Compound | melting point
25 | CNCC(C)C1(c2ccccc2)C=CCC=C1 (stereo unspecified) | > 250 °C
26 | O=C(Nc1ccccc1)N1CC2(CN1)CNN(C(=O)Nc1ccccc1)C2 | 227 °C
27 | O=Cc1ccc(OCCC2Oc3ccccc3N(Cc3cccc(Cl)c3)C2=O)cc1 (stereo unspecified) | 130 to 131 °C
28 | [N-]=[N+]=NC1CC(n2cnc3c(NCC4CC4)nc(N)nc32)OC1CO (stereo unspecified) | 104 to 106 °C
29 | CC(C)CCC(O)C(CC1CCCCC1)NC(=O)C(Cc1c[nH]cn1)N(C)C(=O)C(Cc1ccccc1)OC(=O)N(C)CCC(=O)N1CCOCC1 (stereo unspecified) | 80 to 87 °C
30 | N#Cc1cnc2cc(-c3ccc(CN4CCOCC4)cn3)ccc2c1Nc1ccc(Oc2ccccc2)cc1 | 219 to 221 °C
31 | CCCNc1nc(N)cc(Cl)n1 | 92 to 94 °C
32 | Cc1cn(-c2nccc3[nH]c(=O)ccc23)cn1 | 257 to 259 °C
33 | C[C@@H]1C[C@@H]([C@H](CC2CCCCC2)NC(=O)[C@H](Cc2cscn2)NC(=O)OC(C)(C)C)OC1=O | 118 to 120 °C
34 | O=C(CSc1ccccc1)C1CCCCN1 (stereo unspecified) | 68.5 to 69.5 °C
35 | CCOC(=O)c1ccc(-c2ccc(C#N)cc2)s1 | 133 to 134 °C
36 | COc1ccc(CN(C)C)cc1CO | 67 to 69 °C
37 | CCCCOC(=O)COc1ccc(C(=O)N(C)c2ccccc2Sc2ccccc2-c2nnn[nH]2)cc1 | 148 to 150 °C
38 | CSCC(C)(C)C(=O)N(C)c1cnc(-c2cncc(F)c2)s1 | 98 to 102 °C
39 | COC(=O)COc1ccc(Cl)cc1CC1CNC(=O)CN(S(=O)(=O)c2ccc(Cl)cc2)C1=O (stereo unspecified) | 138 to 140 °C
40 | COc1ccc2c(Cc3c(Cl)cncc3Cl)nncc2c1 | 173 to 175 °C
41 | Cc1cccc(C)c1Nc1c(-c2c(Cl)cccc2OCC(N)=O)nc2ccc(F)cn12 | 186 to 187 °C
42 | C=Cn1cc(C(=O)O)c(=O)c2cc(F)c(N3CCN(C(=O)OCC)CC3)nc21 | 246 to 248 °C
43 | CC(=O)CSc1nc2ccccc2cc1-c1ccc(F)cc1 | 95 to 96 °C
44 | CCCCc1nc2sc(C(=O)O)cc2n1Cc1ccc(-c2ccccc2C(=O)O)cc1 | 264 °C
45 | COC(=O)CS(=O)(=O)c1ccccc1C(=O)OC | 102 to 103 °C
46 | CC(C)(C)C(=O)C=CC1C(C(=O)OC(C#N)c2cccc(Oc3ccccc3)c2)C1(C)C (stereo unspecified) | 89 °C
47 | COc1ccc(OC)c(NC(=O)NCC2(c3ccccc3)CCCCC2)c1 | 164 to 166 °C
48 | CS(=O)(=O)c1cc(C(F)(F)F)ccc1C(=O)O | 156 °C

Row | Compound | melting point
49 | CCNS(=O)(=O)c1cccc(NC(=O)c2cnn3c(C(F)F)cc(-c4ccc(C(F)(F)F)cc4)nc23)c1 | 259 °C
50 | Cc1nc(-n2ccc(OCc3ccccc3)cc2=O)sc1C(=O)NCc1ccc(F)c(F)c1 | 225 to 227 °C
51 | CN(C)c1nc2ccccc2nc1/C=C/c1nc(Cl)cc(N2CCCC2)n1 | 196 to 197 °C
52 | CN(C)Cc1cccc(OCCCNc2nc(N=Cc3cccnc3)nn2C)c1 | 92 to 93 °C
53 | O=C(CCCCl)c1cc2c(s1)C(=O)NCCC2 | 163 to 165 °C
54 | CCn1c(=O)c2c(nc(/C=C/c3cc(OC)c4c(c3)OCO4)n2C)n(CC)c1=O | 202 °C
55 | CSc1ccc(-n2c(-c3ccc(C)cc3)nc(SC)c(C#N)c2=O)cc1 | 230 to 233 °C
56 | CN=C1c2ccccc2CCc2ccc(Cl)cc21 | 84 to 114 °C
57 | C#Cc1ccc(CO[C@@H]2COc3nc([N+](=O)[O-])cn3C2)cn1 | 168 to 170 °C
58 | O=C(O)c1ccc(OCc2cccc(Cl)c2)cn1 | 176 to 177 °C
59 | Cc1cc(Oc2c(Cl)cc(C(F)(F)F)cc2Cl)nn1C(=O)NCC1CCCO1 (stereo unspecified) | 74 to 76 °C
60 | O=c1c2cccnc2c(-c2ccc(Cl)cc2)c2n1CCN2 | 260 to 262 °C
61 | O=C1NCCC[C@@H]1NS(=O)(=O)c1ccccc1F | 180 to 183 °C
62 | O=C(O)c1cn(C2CC2)c2c(F)c(N3CC4CC3CN4Cc3ccc([N+](=O)[O-])cc3)c(F)cc2c1=O (stereo unspecified) | 177 to 182 °C
63 | CC1(CCc2ccc(O)c(C(C)(C)C)c2)NC(=O)NC1=O (stereo unspecified) | 246 °C
64 | Cc1ccn(Cc2ccc(Cl)c(Cl)c2)c(=O)c1C(=O)O | 219 to 221 °C
65 | Nc1ncn(C[C@@H](CO)OCP(=O)(O)O)c(=O)n1 | 175 to 178 °C
66 | CSC1C(=O)Nc2ccc(-c3ccccc3)cc21 (stereo unspecified) | 170 to 172 °C
67 | CCOC(=O)C1=C(C)NC(C)=C(C(=O)OC(C)C)C1c1cccc2ccccc12 (stereo unspecified) | 167 °C
68 | C=CC1C2OCC(O2)C(OCc2ccccc2)C1O (stereo unspecified) | 88 to 91 °C
69 | CC(=O)C=Cc1ccc(OCc2ccccc2)cc1 | 106 to 107 °C
70 | CC(N)c1nc2cccc(Cl)c2c(=O)n1-c1cc(F)cc(F)c1 (stereo unspecified) | 200 to 202 °C
71 | Cc1nc(-c2cc3[nH]c(=O)c(=O)[nH]c3cc2[N+](=O)[O-])c[nH]1 | > 300 °C
